# Where “and” joins values, the source holds several entries; their conditions need not be identical. Equal entries are not always repeated.
# What was measured:
# [1] = Ascorbate oxidation assay (redox activity of iron complexes); assay type: biochemical;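 for %Fe 30min (ascorbate oxidation, Fe 100%), průměr: IBE 3 means excess free chelator over iron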;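 for %Fe 30min (ascorbate oxidation, Fe 100%): IBE 3 means excess free chelator over iron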;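 for Change of absorbance, odečet 0 (time 0 subtracted), čas 10, průměr: IBE 3 means excess free chelator over 10 µM FeCl3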;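 for Change of absorbance, odečet 0 (time 0 subtracted), čas 10: IBE 3 means excess free chelator over 10 µM FeCl3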;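 for Change of absorbance, odečet 0 (time 0 subtracted), čas 20, průměr: 100 µM ascorbate with 10 µM FeCl3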;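 for Change of absorbance, odečet 0 (time 0 subtracted), čas 20: 100 µM ascorbate with 10 µM FeCl3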;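 for Change of absorbance, odečet 0 (time 0 subtracted), čas 30, průměr: 100 µM ascorbate with 10 µM FeCl3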;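 for Change of absorbance, odečet 0 (time 0 subtracted), čas 30: 100 µM ascorbate with 10 µM FeCl3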;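 for odečet 0 (reading minus time 0 reading) at čas 20, single replicates: IBE 1 means fully coordinated iron chelator complexes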;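 for odečet 0 (reading minus time 0 reading) at čas 30, průměr (mean): IBE 1 means fully coordinated iron chelator complexes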;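 for odečet 0 (reading minus time 0 reading) at čas 30, single replicates: IBE 1 means fully coordinated iron chelator complexes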;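 for raw reading at čas 20 (time 20), průměr (mean): IBE 1 means fully coordinated iron chelator complexes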;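 for raw reading at čas 20 (time 20), single replicates: IBE 1 means fully coordinated iron chelator complexes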;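 for raw reading at čas 30 (time 30), průměr (mean): IBE 1 means fully coordinated iron chelator complexes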;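 for raw reading at čas 30 (time 30), single replicates: IBE 1 means fully coordinated iron chelator complexes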
# [2] = system: A549 human lung adenocarcinoma cells; test: MTT cytotoxicity assay, A549 cells; assay type: cell-based; conditions: for IC50: MTT
# Summary of the method: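 After 24 h attachment, the tumour lines (MCF-7 at 5,000; HCT116 and A549 at 2,000 cells/well) receive compounds directly, whereas H9c2 cardiomyoblasts (10,000 cells/well) first spend 24 h in serum- and pyruvate-free DMEM. Treatment lasts 72 h at 37°C in 0.1% DMSO, followed by MTT staining.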
# [3] = sheet IBE 1, time 20, replicates
# [4] = sheet IBE 1, time 30, replicates
compound,measurement,setting,value
"CCNC(=O)NN=C(c1ccccc1)c1ccccn1 [Z-Bp4eS, 2-benzoylpyridine 4-ethylsemicarbazone]","raw reading at čas 10 (time 10), single replicates","[1]; sheet IBE 1, time 10, replicates",0.753 and 0.7654 and 0.7742 and 0.765 and 0.781 and 0.7704 and 0.7896 and 0.8044 and 0.798
same,"odečet 0 (reading minus time 0 reading) at čas 20, průměr (mean)","[1]; sheet IBE 1, time 20, mean",-0.06288
same,"raw reading at čas 20 (time 20), průměr (mean)","[1]; sheet IBE 1, time 20, mean of 9 readings",0.7486
same,"odečet 0 (reading minus time 0 reading) at čas 20, single replicates",[1]; [3],-0.05822 and -0.05772 and -0.05662 and -0.09103 and -0.07213 and -0.05933 and -0.06186 and -0.05806 and -0.05096
same,"raw reading at čas 20 (time 20), single replicates",[1]; [3],0.723 and 0.7379 and 0.7446 and 0.7316 and 0.7437 and 0.7404 and 0.7637 and 0.7781 and 0.7741
same,"odečet 0 (reading minus time 0 reading) at čas 30, průměr (mean)","[1]; sheet IBE 1, time 30, mean",-0.09054
same,"raw reading at čas 30 (time 30), průměr (mean)","[1]; sheet IBE 1, time 30, mean of 9 readings",0.7209
same,"odečet 0 (reading minus time 0 reading) at čas 30, single replicates",[1]; [4],-0.08693 and -0.09103 and -0.08623 and -0.1189 and -0.09997 and -0.08537 and -0.08823 and -0.08163 and -0.07663
same,"raw reading at čas 30 (time 30), single replicates",[1]; [4],0.6943 and 0.7046 and 0.715 and 0.7038 and 0.7159 and 0.7144 and 0.7373 and 0.7545 and 0.7484
same,"%Fe 30min (ascorbate oxidation, Fe 100%), průměr","[1]; sheet IBE 3, 30min, Fe alone = 100%, mean (průměr) of the 9 replicates",110.1%
same,"%Fe 30min (ascorbate oxidation, Fe 100%)","[1]; sheet IBE 3, 30min, Fe alone = 100%, single replicates",104.7% and 99.68% and 110% and 146.8% and 116.1% and 111.6% and 112.3% and 95.38% and 93.85%
same,"Change of absorbance, odečet 0 (time 0 subtracted), čas 10, průměr","[1]; sheet IBE 3, time 10 minus time 0, mean (průměr)",-0.03903
same,"Change of absorbance, odečet 0 (time 0 subtracted), čas 10","[1]; sheet IBE 3, time 10 minus time 0, single replicates",-0.0367 and -0.0322 and -0.0443 and -0.057 and -0.0434 and -0.0428 and -0.03948 and -0.02878 and -0.02658
same,"Change of absorbance, odečet 0 (time 0 subtracted), čas 20, průměr","[1]; sheet IBE 3, time 20 minus time 0, mean (průměr)",-0.07371
same,"Change of absorbance, odečet 0 (time 0 subtracted), čas 20","[1]; sheet IBE 3, time 20 minus time 0, single replicates",-0.07156 and -0.06896 and -0.07856 and -0.1012 and -0.07529 and -0.07709 and -0.07424 and -0.05944 and -0.05704
same,"Change of absorbance, odečet 0 (time 0 subtracted), čas 30, průměr","[1]; sheet IBE 3, time 30 minus time 0, mean (průměr)",-0.1017
same,"Change of absorbance, odečet 0 (time 0 subtracted), čas 30","[1]; sheet IBE 3, time 30 minus time 0, single replicates",-0.09723 and -0.09253 and -0.1021 and -0.1363 and -0.1078 and -0.1036 and -0.1028 and -0.0873 and -0.0859
same,"Therapeutic index, IC50 non-cancerous cells / IC50 neoplastic cells",[2]; 3T3/A549,>1.9
same,IC50,"[2]; A549, 72 h/37°C, mean ± SD, n ≥ 4",536 ± 147 µM
same,"MTT, relative to control (0 = 100)","[2]; A549, 2 000 b/j, 1 μM, průměr (mean), sheet Z-Bp4eS",94.73
same,"MTT, relative to control (0 = 100)","[2]; A549, 2 000 b/j, 1 μM, single experiment (date), sheet Z-Bp4eS",96.1035 and 96.1124 and 90.1392 and 98.3089 and 94.9198 and 92.7894
same,"MTT, relative to control (0 = 100)","[2]; A549, 2 000 b/j, 3 μM, průměr (mean), sheet Z-Bp4eS",94.38
same,"MTT, relative to control (0 = 100)","[2]; A549, 2 000 b/j, 3 μM, single experiment (date), sheet Z-Bp4eS",93.9771 and 96.8848 and 87.0494 and 97.8403 and 95.4397 and 95.0776
same,"MTT, relative to control (0 = 100)","[2]; A549, 2 000 b/j, 10 μM, průměr (mean), sheet Z-Bp4eS",94.55
same,"MTT, relative to control (0 = 100)","[2]; A549, 2 000 b/j, 10 μM, single experiment (date), sheet Z-Bp4eS",94.0202 and 95.9602 and 87.4767 and 100.017 and 95.1483 and 94.6861
same,"MTT, relative to control (0 = 100)","[2]; A549, 2 000 b/j, 30 μM, průměr (mean), sheet Z-Bp4eS",91.68
same,"MTT, relative to control (0 = 100)","[2]; A549, 2 000 b/j, 30 μM, single experiment (date), sheet Z-Bp4eS",90.8876 and 93.251 and 83.1786 and 91.8017 and 95.6624 and 95.2834
same,"MTT, relative to control (0 = 100)","[2]; A549, 2 000 b/j, 100 μM, průměr (mean), sheet Z-Bp4eS",84.34
same,"MTT, relative to control (0 = 100)","[2]; A549, 2 000 b/j, 100 μM, single experiment (date), sheet Z-Bp4eS",76.9185 and 86.3352 and 79.6865 and 86.589 and 88.5447 and 87.9645
same,"MTT, relative to control (0 = 100)","[2]; A549, 2 000 b/j, 300 μM, průměr (mean), sheet Z-Bp4eS",74.88
same,"MTT, relative to control (0 = 100)","[2]; A549, 2 000 b/j, 300 μM, single experiment (date), sheet Z-Bp4eS",67.4475 and 78.3776 and 76.2041 and 77.4903
same,"MTT, relative to control (0 = 100)","[2]; A549, 2 000 b/j, 1000 μM, průměr (mean), sheet Z-Bp4eS",26.69
same,"MTT, relative to control (0 = 100)","[2]; A549, 2 000 b/j, 1000 μM, single experiment (date), sheet Z-Bp4eS",18.2318 and 35.0023 and 34.1521 and 19.3887
same,IC50,"[2]; A549, 2 000 b/j, single experiment (date), sheet Z-Bp4eS",676 µM and 639 µM and 464 µM
same,"Therapeutic index, IC50 non-cancerous cells / IC50 neoplastic cells",[2]; H9c2/A549,0.6
same,IC50,"[2]; Homo sapiens, A549, A549, 2 000 b/j, průměr (mean), sheet Z-Bp4eS",536 µM
same,IC50,"[2]; Homo sapiens, A549, A549, 2 000 b/j, single experiment (date), sheet Z-Bp4eS",364 µM
